Experiment [1] deals with REL-A (p65) nuclear translocation in HeLa cells. Kind of experiment: REL-A nuclear translocation assay (classical NF-kB signaling), high content imaging. Type of experiment: cell-based. The settings on record: Homo sapiens, HeLa, compounds 4.5 hours, then 10 ng/mL TNF-α for 30 minutes, read-out: REL-A HeLa Transloc Assay (IC50). The procedure:
(2) A second set of cell assay are used to define the selectivity of NIK inhibitors toward inhibition of classical vs. non-classical NF-kB signaling and rely on quantification of the nuclear translocation of p52 (NF-kB2) and REL-A (p65) using high content cellular imaging. For the p52 (non-classical NF-kB signaling) nuclear translocation assay, HeLa cells are treated with different concentrations of compounds (0.2% DMSO final) in medium containing 10% fetal bovine serum and then stimulated with 100 ng/mL, of an anti-lymphotoxin beta receptor antibody (R&D Systems) for 5 hours. In the REL-A nuclear translocation assay, HeLa cells are incubated with compounds (0.2% DMSO final) for 4.5 hours in medium containing 10% fetal bovine serum before stimulating them with 10 ng/mL tumor necrosis factor (TNF)-α (R&D Systems) for 30 minutes. Cells are fixed with 4% paraformaldehyde, permeabilized by adding 0.1% Triton X-100 in phosphate buffered saline, and then are incubated with either 2 ug/mL anti-p52 antibody (Millipore) or 400 ng/mL anti-REL-A (p65) antibody (Santa Cruz Biotechnology). Finally, the cells are incubated with an Alexa488-labeled secondary antibody (Invitrogen) and DRAQ5 DNA stain (Biostatus). Imaging is carried out using an Opera reader (Perkin Elmer) and data are analyzed with the aid of Acapella software (Perkin Elmer). The p52 or REL-A translocation into the nucleus is quantified by the ratio of the nuclear to cytoplasmic signal intensity. […] The compounds in listed in Table 1 have the corresponding inhibitory value (IC50 in micromolar) for NIK p52 Translocation Assay as set forth in Table 2.
The compounds in listed in Table 1 has the corresponding inhibitory value (IC50 in micromolar) for NIK RelA Translocation Assay as set forth in Table 2.

Experiment [2] addresses nuclear factor-kappa B (NF-kB)-inducing kinase (NIK) (Homo sapiens (Human), UniProt Q99558). Nature of the experiment: NIK Enzyme Inhibition Assay (Transcreener ADP fluorescence polarization). Type of experiment: biochemical. To be noted: read-out: NIK ADP-FP (Ki uM). The method in brief: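 Fluorescence-polarization ADP detection (tracer displacement, 633 nm excitation) read after EDTA/Brij quench. Reaction: 0.2-1 nM insect-cell-derived NIK, 10 uM ATP, HEPES pH 7.2 with MgCl2 and DTT, 1% DMSO, 1-3.5 h with compounds.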

Where [3] appears, read: purified NIK 0.2-1 nM, 10 uM ATP, Morrison's quadratic equation.

The structures appear in SMILES notation. Several values for one entry are separate records, joined by “and”; a condition that tells them apart may be missing. Equal entries are not always repeated. Where two headings read alike, the source gives them in different places.

nuclear factor-kappa B (NF-kB)-inducing kinase (NIK), sequence (Q99558 whole entry): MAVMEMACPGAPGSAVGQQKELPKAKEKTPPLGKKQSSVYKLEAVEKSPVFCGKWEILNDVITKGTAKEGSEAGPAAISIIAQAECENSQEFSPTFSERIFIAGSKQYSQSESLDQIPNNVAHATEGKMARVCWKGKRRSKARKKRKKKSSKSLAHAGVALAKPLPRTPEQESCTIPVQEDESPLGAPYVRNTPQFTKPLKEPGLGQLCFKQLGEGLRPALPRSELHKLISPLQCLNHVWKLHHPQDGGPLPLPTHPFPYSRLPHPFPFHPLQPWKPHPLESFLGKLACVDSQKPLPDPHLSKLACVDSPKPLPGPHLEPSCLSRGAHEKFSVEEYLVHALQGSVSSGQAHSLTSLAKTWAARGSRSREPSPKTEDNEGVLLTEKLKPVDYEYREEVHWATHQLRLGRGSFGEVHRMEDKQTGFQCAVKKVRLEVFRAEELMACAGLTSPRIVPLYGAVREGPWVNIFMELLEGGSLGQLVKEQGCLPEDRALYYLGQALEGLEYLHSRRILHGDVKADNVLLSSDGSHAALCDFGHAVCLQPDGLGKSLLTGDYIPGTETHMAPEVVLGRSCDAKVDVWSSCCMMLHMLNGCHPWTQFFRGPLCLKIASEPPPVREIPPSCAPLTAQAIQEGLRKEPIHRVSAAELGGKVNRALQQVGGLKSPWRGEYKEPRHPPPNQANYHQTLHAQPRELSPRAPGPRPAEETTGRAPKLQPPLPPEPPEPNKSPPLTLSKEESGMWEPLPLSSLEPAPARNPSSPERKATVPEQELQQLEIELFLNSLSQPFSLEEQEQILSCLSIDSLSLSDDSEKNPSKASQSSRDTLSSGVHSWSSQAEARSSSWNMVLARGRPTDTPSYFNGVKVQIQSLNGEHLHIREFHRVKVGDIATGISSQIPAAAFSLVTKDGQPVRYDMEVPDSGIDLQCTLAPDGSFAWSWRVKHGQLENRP

The term IC50 denotes the point on the concentration scale where inhibition reaches its midpoint. On to `CN1CC[C@@](O)(C#Cc2ccc3c(c2)-c2nc(C(N)=O)sc2[C@](O)(CF)CO3)C1=O` [Example 465], for which the IC50 in experiment [1] is more than 20000 nM.

Consider `Cc1nc([C@](C)(O)C#Cc2ccc3c(c2)-c2nc(C(N)=O)sc2[C@@](C)(F)CO3)no1`, for which, in experiment [1], the IC50 was more than 20000 nM.

As usually defined, the Ki is the equilibrium dissociation constant of an inhibitor or competing ligand from its target. As to `CN1CC[C@](O)(C#Cc2ccc3c(c2)-c2nc(C(N)=O)c(C4CN(C(=O)C5CC5)C4)n2C2CC3C2)C1=O` (racemic), the Ki in experiment [2] (setting [3]) is more than 1.2 µM.

Turning to `CC(O)(C#Cc1ccc2c(c1)-c1nc(C(N)=O)cn1C1CC2C1)CO` (centres unmarked) [Example 181, 10-(3,4-dihydroxy-3-methyl-but-1-ynyl)-5,6,7,12-tetrahydro-5,7-methanoben-zo[c]imidazo[1,2-a]azepine-2-carboxamide], the Ki in experiment [2] (setting [3]) stood at 0.036 µM.

For `CC(C)(C#Cc1cc2c(cc1F)OCCn1cc(C(N)=O)nc1-2)CO` (racemic), the Ki in experiment [2] (setting [3]) is more than 5 µM.

With `CNC(=O)c1c(C(N)=O)nc2n1CCOc1ccc(C#CC3(O)CCCCC3)cc1-2`, the Ki in experiment [2] (setting [3]) was found to be 0.0057 µM.

As for `CN1CC[C@@](O)(C#Cc2ccc3c(c2)-c2nc(C(N)=O)c(C(F)F)n2C2CC3C2)C1=O` [Example 664, 3-(difluoromethyl)-10-[2-[(3R)-3-hy-droxy-1-methyl-2-oxo-pyrrolidin-3-yl]ethy-nyl]-5,6,7,12-tetrahydro-5,7-methano-benzo[c]imidazo[1,2-a]azepine-2-carboxamide], in experiment [2] (setting [3]), the Ki was 0.00078 µM.

Regarding `Cc1cc([C@](C)(O)C#Cc2ccc3c(c2)-n2nc(C(N)=O)cc2CCO3)no1`, the Ki in experiment [2] (setting [3]) was 0.0066 µM.

As for `Cc1cccnc1C(C)(O)C#Cc1cc2c(cc1F)OCCn1cc(C(N)=O)nc1-2` (racemic) [Example 62], the Ki in experiment [2] (setting [3]) was more than 5 µM.

Regarding `CC(O)(C#Cc1cc2c(cc1F)OCCn1cc(C(N)=O)nc1-2)c1ncccn1` (centres unmarked) [Example 16, 8-fluoro-9-(3-hydroxy-3-pyrimidin-2-yl-but-1-ynyl)-4,5-dihydro-6-oxa-1,3a-diaza-benzo[e]azulene-2-carboxylic acid amide], the Ki in experiment [2] (setting [3]) is 0.025 µM.

For `NC(=O)c1cn2c(n1)-c1cc(C#CC3(O)CCC3)c(F)cc1OCC2` [Example 17, 8-fluoro-9-(1-hydroxy-cyclobutylethynyl)-4,5-dihydro-6-oxa-1,3a-diaza-benzo[e]azulene-2-carboxylic acid amide], in experiment [2] (setting [3]), the Ki amounted to 0.01 µM.

`CC(C)(O)C#Cc1cc2c(cc1F)OCCn1c-2nc(C(N)=O)c1C(=O)NCC1COC1` [Example 91]: in experiment [2] (setting [3]), the Ki stood at 0.004 µM.

Regarding `CC(O)(C#Cc1cc2c(cc1F)OCCn1cc(C(N)=O)nc1-2)c1ccncn1` (centres unmarked), in experiment [2] (setting [3]), the Ki was more than 5 µM.

`CC(O)(C#Cc1cc2c(cc1F)OCCn1cc(C(N)=O)nc1-2)C1(C)CC1` (racemic) [Example 64]: the Ki in experiment [2] (setting [3]) is more than 5 µM.

For the compound `CN1CC[C@@](O)(C#Cc2ccc3c(c2)-n2nc(C(N)=O)c(Cl)c2C(F)(F)CO3)C1=O` [Example 719, (R)-3-chloro-4,4-difluoro-9-((3-hydroxy-1-methyl-2-oxopyrrolidin-3-yl)ethynyl)-4,5-dihydrobenzo[b]pyrazolo[1,5-d][1,4]oxazepine-2-carboxamide], in experiment [2] (setting [3]), the Ki was 0.0004 µM.

As for `C[C@@](O)(C#Cc1ccc2c(c1)-n1nc(C(N)=O)cc1C(F)(F)CO2)c1cccnn1`, the Ki in experiment [2] (setting [3]) is 1.6 µM.

As for `CN1CC[C@@](O)(C#Cc2ccc3c(c2)-n2nc(C(N)=O)c(CO)c2CCO3)C1=O` [Example 720, (R)-9-((3-hydroxy-1-methyl-2-oxopyrro-lidin-3-yl)ethynyl)-3-(hydroxymethyl)-4,5-dihydrobenzo[b]pyrazolo[1,5-d][1,4]oxazepine-2-carboxamide], the Ki in experiment [2] (setting [3]) was found to be 0.001 µM.

Consider `COCCNCc1c(C(N)=O)nc2n1C1CC(C1)c1cc(F)c(C#CC(C)(C)O)cc1-2` (racemic), for which the inhibition constant (Ki) in experiment [2] (setting [3]) is 0.056 µM.

In the case of `CC(O)(C#Cc1cc2c(cc1F)C1CC(C1)n1cc(C(N)=O)nc1-2)CO` (centres unmarked), the Ki in experiment [2] (setting [3]) is 0.014 µM.

On to `CC(O)(C#Cc1cc2c(cc1F)OCCn1cc(C(N)=O)nc1-2)C(=O)N1CC(F)(F)C1` (racemic) [Example 156], for which the Ki in experiment [2] (setting [3]) worked out at 0.155 µM.

Consider `CC(C)(O)C#Cc1ccc2c(c1)-c1nc(C(N)=O)sc1C(=O)CO2` [Example 9, 9-(3-hydroxy-3-methyl-but-1-ynyl)-4-oxo-4,5-dihydro-6-oxa-3-thia-1-aza-benzo-[e]azulene-2-carboxylic acid amide], for which the Ki in experiment [2] (setting [3]) was found to be 0.216 µM.

On to `Cn1cc([C@@H](O)c2c(C(N)=O)nc3n2CCOc2cc(F)c(C#CC(C)(C)O)cc2-3)cn1`, for which the Ki in experiment [2] (setting [3]) worked out at 0.033 µM.

Consider `CC(C)(O)C#Cc1cc2c(cc1F)C1CC(C1)n1c-2nc(C(N)=O)c1CN1CCOCC1`, for which the Ki in experiment [2] (setting [3]) was found to be 0.021 µM.

For the compound `Cc1cc([C@](C)(O)C#Cc2ccc3c(c2)-c2nc(C(N)=O)c(C(=O)NCc4cccnc4)n2CCO3)no1` [Example 581, (R)-10-(3-hydroxy-3-(5-methylisoxazol-3-yl)but-1-yn-1-yl)-N3-(pyridin-3-ylmeth-yl)-5,6-dihydrobenzo[f]imidazo[1,2-d][1,4]oxazepine-2,3-dicarboxamide], the Ki in experiment [2] (setting [3]) was 0.001 µM.

For `CN1CC[C@](O)(C#Cc2cc3c(cc2F)C2CC(C2)n2c-3nc(C(N)=O)c2C(C)(C)O)C1=O` [Example 325, 9-fluoro-3-(1-hydroxy-1-methyl-ethyl)-10-[2-[(3S)-3-hydroxy-1-methyl-2-oxo-pyrrolidin-3-yl]ethynyl]-5,6,7,12-tetra-hydro-5,7-methanobenzo[c]imidazo-[1,2-a]azepine-2-carboxamide], the Ki in experiment [2] (setting [3]) is more than 1.2 µM.

As for `CC(C)(O)C#Cc1ccc2c(c1)-c1nc(C(N)=O)c(CN3CCC(C#N)C3)n1CCO2` (centres unmarked), the Ki in experiment [2] (setting [3]) worked out at 0.0019 µM.

For `CC(C)(O)C#Cc1cc2c(cc1F)OCCn1c-2nc(C(N)=O)c1C(=O)NC1CN2CCC1CC2` (racemic), in experiment [2] (setting [3]), the Ki is 0.453 µM.

In the case of `CNC(=O)c1c(C(N)=O)nc2n1C1CC(C1)c1cc(F)c(C#CC(C)(O)CO)cc1-2` (centres unmarked), the Ki in experiment [2] (setting [3]) turned out to be 0.01 µM.

Take `NC(=O)c1cc2n(n1)-c1cc(C#CC3(O)CCCC3O)ccc1OCC2` (centres unmarked) [Example 695]: the Ki in experiment [2] (setting [3]) is 1.8 µM and 1.1 µM.

On to `CN1CC[C@@](O)(C#Cc2ccc3c(c2)-c2nc(C(N)=O)c(COc4ccccc4Cl)n2CCO3)C1=O`, for which, in experiment [2], the Ki came to 0.004 µM.

Consider `Cn1ccnc1C(C)(O)C#Cc1cc2c(cc1F)OCCn1cc(C(N)=O)nc1-2` (centres unmarked), for which the inhibitory constant (Ki) in experiment [2] (setting [3]) was determined as 0.239 µM.

As for `CC(C)(O)C#Cc1ccc2c(c1)-c1nc(C(N)=O)c(-c3cc[nH]n3)n1CCO2` [Example 110], the Ki in experiment [2] (setting [3]) came out at 0.023 µM.

Turning to `CC(O)(C#Cc1cc2c(cc1F)OCCn1cc(C(N)=O)nc1-2)c1cc(CO)on1` (centres unmarked) [Example 32, 8-fluoro-9-[3-hydroxy-3-(5-hydroxymeth-yl-isoxazol-3-yl)-but-1-ynyl]-4,5-dihy-dro-6-oxa-1,3a-diaza-benzo[c]azulene-2-carboxylic acid amide], the Ki in experiment [2] (setting [3]) is 0.002 µM.

As for `CN1CC[C@](O)(C#Cc2ccc3c(c2)-c2nc(C(N)=O)cn2C2CC3C2)C1=O`, the Ki in experiment [2] (setting [3]) is more than 1.2 µM.

With `Cn1nc(-c2ccncc2)nc1-c1c(C(N)=O)nc2n1CCOc1cc(F)c(C#CC(C)(C)O)cc1-2` (racemic), in experiment [2] (setting [3]), the Ki amounted to 0.635 µM.

On to `CN(C)C1COc2ccc(C#CC(C)(C)O)cc2-c2nc(C(N)=O)sc21` (centres unmarked) [Example 10, 4-dimethylamino-9-(3-hydroxy-3-meth-yl-but-1-ynyl)-4,5-dihydro-6-oxa-3-thia-1-aza-benzo[e]azulene-2-carboxylic acid amide], for which the Ki in experiment [2] (setting [3]) was 0.096 µM.

As for `CC(C)(O)C#Cc1cc2c(cc1F)OCCn1c-2nc(C(N)=O)c1-c1nc(C2CC2)no1` (racemic) [Example 188], the Ki in experiment [2] (setting [3]) is 0.19 µM.

For the compound `Cc1cc([C@](C)(O)C#Cc2ccc3c(c2)-n2nc(C(N)=O)cc2C(F)(F)CO3)no1` [Example 674, (R)-4,4-difluoro-9-(3-hydroxy-3-(5-methylisoxazol-3-yl)but-1-yn-1-yl)-4,5-dihydrobenzo[b]pyrazolo[1,5-d][1,4]oxazepine-2-carboxamide], the Ki in experiment [2] was determined as 0.0011 µM.

On to `CN1CCCC(NC(=O)c2c(C(N)=O)nc3n2CCOc2cc(F)c(C#CC(C)(C)O)cc2-3)C1` (centres unmarked) [Example 78], for which the Ki in experiment [2] (setting [3]) is 0.06 µM.

Take `CC(C)(O)C#Cc1cc2c(cc1F)OCCn1c-2nc(C(N)=O)c1C1CC1` [Example 36, 3-cyclopropyl-8-fluoro-9-(3-hydroxy-3-methyl-but-1-ynyl)-4,5-dihydro-6-oxa-1,3a-diaza-benzo[e]azulene-2-carboxylic acid amide]: in experiment [2] (setting [3]), the Ki came to 0.037 µM.

For the compound `CN(C)C(=O)CC1COc2ccc(C#CC(C)(C)O)cc2-c2nc(C(N)=O)sc21` (centres unmarked) [Example 43, 4-dimethylcarbamoylmethyl-9-(3-hydro-xy-3-methyl-but-1-ynyl)-4,5-dihydro-6-oxa-3-thia-1-aza-benzo[e]azulene-2-car-boxylic acid amide], the Ki in experiment [2] (setting [3]) is 0.403 µM.

The record behind these values is patent publication US9034866B2 (Genentech, Inc., priority 2012, dated 2015).
